# Measured values: patent US6835720B2, “Compounds having antiviral activity” (Nissin Food Products Co., Ltd., priority 1996, dated 2004)
# Like-named read-outs stand apart in the source and are kept apart here.
# Key:
# AIDS virus (HIV-1, IIIb) = format: cell-based; conditions: HIV-1 IIIb in H9 cells, p24 in culture supernatant by ELISA on the 6th day
# Description: (§1) Samples of various concentrations (25 μl) are distributed into a 24-well microplate, immediately added with human T cells (H9 cell line, 1.2×10^5/ml) (1 ml), covered, and incubated at 37° C. for 1 h. Then, AIDS virus (HIV-1, IIIb, 100 TCID 50) (25 μl) is added to each well and thoroughly mixed, covered again, and incubated under the CO2 atmosphere at 37° C. for 3 days. On the fourth day, aliquots (200 μl) of the culture medium from each well are transferred into a fresh microplate. The growth medium (500 μl) is added to each well, and further incubated for 2 days.
# (§2) On the 6th day, aliquots (90 μl) of the culture supernatant are withdrawn, and assayed the amount of p24, a constituent of HIV-1, by ELISA method using the anti-p24 antibody to assess the growth of said virus. Also, using the remaining cell culture suspension (100 μl), viable cells are counted by the MTT method. Experimental values are expressed as the ratios (%) to the negative control value (measured using the solvent to dissolve test compounds as the sample) to represent the anti-HIV activity and cytotoxicity. Then, for the unified representation of the anti-HIV activity and cytotoxicity, the concentrations of test compounds at their 50% values are obtained from the activity-concentration curves and the cytotoxicity-concentration, and represented as IC50 and CC50, respectively.
# [1] = system: human T cells (H9 cell line); test: Cytotoxicity, viable cells counted by the MTT method; format: cell-based
# Description: as §1, §2
# human plasma = test: Anti-coagulation activity in human plasma; conditions: calcium chloride, 37° C. for 30 min, judged with the naked eye
Compound,"IC50 (AIDS virus (HIV-1, IIIb)) [µM]",CC50 [1] [µM],"CC50 ([1]; H9 cells, MTT method, 6th day, read-out: CC 50) [µM]",Minimum concentration exhibiting anticoagulant action (human plasma) [µM]
"1-[N-{5-Acetamido-3,5-dideoxy-2-O-methyl-4,7,8,9-tetra-O-(sodium oxysulfonyl)-D-glycero-β-D-galacto-2-nonulopyranosonyl}amino]-2,2-bis(docosyloxymethyl) propane [Example 59]",1.4,> 200,,
"3-O-[Sodium{5-acetamido-3,5-dideoxy-4,7,8,9-tetra-O-(sodium oxysulfonyl)-D-glycero-α-D-galacto-2-nonulopyranosyl}onate]-1,2-di-O-tetradecyl-Sn-glycerol [Example 7]",16,> 200,,
"3-S-[Sodium{5-acetamido-3,5-dideoxy-4,7,8,9-tetra-O-(sodium oxysulfonyl)-D-glycero-α-D-galacto-2-nonulopyranosyl}onate]-1,2-di-O-tetradecyl-Sn-thioglycerol [Example 14]",15,> 200,,
"CCCCCCCCCCOCC(COC1(C(=O)O)CC(OS(=O)(=O)O)C(NC(C)=O)C(C(OS(=O)(=O)O)C(COS(=O)(=O)O)OS(=O)(=O)O)O1)OCCCCCCCCCC [Example 5, 3-O-[Sodium{5-acetamido-3,5-dideoxy-4,7,8,9-tetra-O-(sodiumoxysulfonyl)-D-glycero-α-D-galacto-2-nonulopyranosyl}onate]-1,2-di-O-decyl-Sn-glycerol]",46,> 200,,
"CCCCCCCCCCOCC(COC1(C(=O)O)CC(OS(=O)(=O)O)C(NC(C)=O)C(C(OS(=O)(=O)O)C(COS(=O)(=O)O)OS(=O)(=O)O)O1)OCCCCCCCCCC [Example 6, 3-O-[Sodium{5-acetamido-3,5-dideoxy4,7,8,9-tetra-O-(sodiumoxysulfonyl)-D-glycero-β-D-galacto-2-nonulopyranosyl}onate]-1,2-di-O-decyl-Sn-glycerol]",50,,> 200,
"CCCCCCCCCCCCCCOCC(COC1(C(=O)O)CC(OS(=O)(=O)O)C(NC(C)=O)C(C(OS(=O)(=O)O)C(COS(=O)(=O)O)OS(=O)(=O)O)O1)OCCCCCCCCCCCCCC [Example 8, 3-O-[Sodium{5-acetamido-3,5-dideoxy-4,7,8,9-tetra-O-(sodiumoxysulfonyl)-D-glycerol-β-D-galacto-2-nonulopyranosyl}ornate]-1,2-di-O-tetradecyl-Sn-glycerol]",15,> 200,,
"CCCCCCCCCCCCCCCCCCOCC(COC1(C(=O)O)CC(OS(=O)(=O)O)C(NC(C)=O)C(C(OS(=O)(=O)O)C(COS(=O)(=O)O)OS(=O)(=O)O)O1)OCCCCCCCCCCCCCCCCCC [Example 9, 3-O-[Sodium{5-acetamido-3,5-dideoxy-4,7,8,9-tetra-O-(sodiumoxysulfonyl)-D-glycerol-α-D-galacto-2-nonulopyranosyl)onate]-1,2-di-O-octadecyl-Sn-glycerol]",3.8,> 200,,
"CCCCCCCCCCCCCCCCCCOCC(COC1(C(=O)O)CC(OS(=O)(=O)O)C(NC(C)=O)C(C(OS(=O)(=O)O)C(COS(=O)(=O)O)OS(=O)(=O)O)O1)OS(=O)(=O)O [Example 10, 3-O-[Sodium{5-acetamido-3,5-dideoxy-4,7,8,9-tetra-O-(sodiumoxysulfonyl)-D-glycero-α-D-galacto-2-nonulopyranosyl}onate]-2-O-(sodiumoxysulfonyl)-1-O-octadecyl-Sn-glycerol]",30,> 200,,
"CCCCCCCCCCCCCCCCCCOC[C@H](CO[C@@]1(C(=O)O)C[C@H](OS(=O)(=O)O)[C@@H](NC(C)=O)[C@H]([C@H](OS(=O)(=O)O)[C@@H](COS(=O)(=O)O)OS(=O)(=O)O)O1)OS(=O)(=O)O [Example 11, 3-O-[Sodium{5-acetamido-3,5-dideoxy4,7,8,9-tetra-O-(sodiumoxysulfonyl)-D-glycero-β-D-galacto-2-nonulopyranosyl}onate]-2-O-(sodiumoxysulfonyl)-1-O-octadecyl-Sn-glycerol]",13,200,,
"CCCCCCCCCCCCCCCCCCCCOCC(COC1(C(=O)O)CC(OS(=O)(=O)O)C(NC(C)=O)C(C(OS(=O)(=O)O)C(COS(=O)(=O)O)OS(=O)(=O)O)O1)OCCCCCCCCCCCCCCCCCCCC [Example 17, 3-O-[Sodium{5-acetamido-3,5-dideoxy-4,7,8,9-tetra-O-(sodiumoxysulfonyl)-D-glycero-α-D-galacto-2-nonulopyranosyl)onate]-1,2-di-O-eicosyl-Sn-glycerol]",2.5,> 20,,
"CCCCCCCCCCCCCCCCCCCCCCCCOCC(COC1(C(=O)O)CC(OS(=O)(=O)O)C(NC(C)=O)C(C(OS(=O)(=O)O)C(COS(=O)(=O)O)OS(=O)(=O)O)O1)OCCCCCCCCCCCCCCCCCCCCCCCC [Example 20, 3-O-[Sodium{5-acetamido-3,5-dideoxy-4,7,8,9-tetra-O-(sodiumoxysulfonyl)-D-glycero-α-D-galacto-2-nonulopyranosyl}onate]-1,2-di-O-tetracosyl-Sn-glycerol]",1.2,> 20,,
"CC(=O)N[C@H]1[C@H]([C@H](OS(=O)(=O)O)[C@@H](COS(=O)(=O)O)OS(=O)(=O)O)O[C@@](O[C@H]2CC[C@@]3(C)C(=CC[C@H]4[C@@H]5CC[C@H]([C@H](C)CCCC(C)C)[C@@]5(C)CC[C@@H]43)C2)(C(=O)O)C[C@@H]1OS(=O)(=O)O [Example 24, 3β-[Sodium{5-acetamido-3,5-dideoxy-4,7,8,9-tetra-O-(sodiumoxysulfonyl)-D-glycero-α-D-galacto-2-nonulopyranosyl}onate]-5-cholestene]",34,> 200,,
"CCCCCCCC/C=C\CCCCCCCCOC1(C(=O)O)CC(OS(=O)(=O)O)C(NC(C)=O)C(C(OS(=O)(=O)O)C(COS(=O)(=O)O)OS(=O)(=O)O)O1 [Example 25, Sodium[oleyl 5-acetamido-3,5-dideoxy-4,7,8,9-tetra-O-(sodiumoxysulfonyl)-D-glycero-α-D-galacto-2-nonulopyranosid]onate]",100,> 200,,
"CCCCCCCCCCCCCCCCCCO[C@]1(C(=O)O)C[C@H](OS(=O)(=O)O)[C@@H](NC(C)=O)[C@H]([C@H](OS(=O)(=O)O)[C@@H](COS(=O)(=O)O)OS(=O)(=O)O)O1 [Example 26, Sodium[octadecyl 5-acetamido-3,5-dideoxy-4,7,8,9-tetra-O-(sodiumoxysulfonyl)-D-glycero-α-D-galacto-2-nonulopyranosid)onate]",100,> 200,,
"CCCCCCCCCCCCCCCCCCCCOCC(C)(COCCCCCCCCCCCCCCCCCCCC)CO[C@]1(C(=O)O)C[C@H](OS(=O)(=O)O)[C@@H](NC(C)=O)[C@H]([C@H](OS(=O)(=O)O)[C@@H](COS(=O)(=O)O)OS(=O)(=O)O)O1 [Example 32, Sodium[2,2-bis(eicosyloxymethyl)propyl 5-acetamido-3,5-dideoxy-4,7,8,9-tetra-O-(sodiumoxysulfonyl)-D-glycero-α-D-galacto-2-nonulopyranosid)onate]",2.5,> 200,,
"CCCCCCCCCCCCCCCCCCCCCCOc1cc(OCCCCCCCCCCCCCCCCCCCCCC)cc(O[C@@]2(C(=O)O)C[C@H](OS(=O)(=O)O)[C@@H](NC(C)=O)[C@H]([C@H](OS(=O)(=O)O)[C@@H](COS(=O)(=O)O)OS(=O)(=O)O)O2)c1 [Example 35, Sodium[3,5-Didocosyloxyphenyl-5-acetamido-3,5-dideoxy-4,7,8,9-tetra-O-(sodiumoxysulfonyl)-D-glycero-β-D-galacto-2-nonulopyranosid)onate]",90,> 20,,
"CCCCCCCCCCCCCCCCCCCCCC(=O)OCC(COC1(C(=O)O)CC(OS(=O)(=O)O)C(NC(C)=O)C(C(OS(=O)(=O)O)C(COS(=O)(=O)O)OS(=O)(=O)O)O1)OC(=O)CCCCCCCCCCCCCCCCCCCCC [Example 38, 3-O-[Sodium{5-acetamido-3,5-dideoxy-4,7,8,9-tretra-O-(sodiumoxysulfonyl)-D-glycero-α-D-galacto-2-nonulopyranosyl}onate]-1,2-di-O-docosanoyl-Sn-glycerol]",2.5,> 200,,
"CCCCCCCCCCCCCCCCCCCCCCOCC(COC1(C(=O)O)CC(OS(=O)(=O)O)C(OS(=O)(=O)O)C(C(OS(=O)(=O)O)C(COS(=O)(=O)O)OS(=O)(=O)O)O1)OCCCCCCCCCCCCCCCCCCCCCC [Example 41, 3-O-[Sodium{3-deoxy-4,5,7,8,9-penta-O-(sodiumoxysulfonyl)-D-glycero-α-D-galacto-2-nonulopyranosyl}onate]-1,2-di-O-docosyl-Sn-glycerol]",4,> 200,,
"CCCCCCCCCCCCCCCCCCCCCCOCC(CC)(COCCCCCCCCCCCCCCCCCCCCCC)COC1(C(=O)O)CC(OS(=O)(=O)O)C(NC(C)=O)C(C(OS(=O)(=O)O)C(COS(=O)(=O)O)OS(=O)(=O)O)O1 [Example 50, Sodium[2,2-bis(docosyloxymethyl)butyl 5-acetamido-3,5-dideoxy-4,7,8,9-tetra-O-(sodiumoxysulfonyl)-D-glycero-α-D-galacto-2-nonulopyranosid)onate]",1.1,> 200,,
Dextran sulfate [reference compound],,,,0.5
